Tests used:
purple nutsedge = experiment: Test B pre/postemergence purple nutsedge; format: in vivo, Cyperus rotundus
Summary of the method: (§1)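 Test chemicals in a non-phytotoxic solvent mixture with surfactant were sprayed preemergence onto planted seeds and postemergence onto plants 2 to 18 cm tall (1- to 4-leaf stage). After twelve to sixteen days in a greenhouse, injury was visually rated against untreated controls from 0 (no effect) to 10 (complete control).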

winter wheat [1] = experiment: Test E winter wheat; format: in vivo, Triticum aestivum; conditions: Postemergence
Summary of the method: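 For postemergence, plants at the 1- to 4-leaf stage, in a 60:40 mix of sandy loam and potting mix, treated with compound formulated in a surfactant-containing non-phytotoxic solvent. Visual assessment versus untreated controls followed roughly 21–28 days in the greenhouse.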

winter wheat [2] = experiment: Test E winter wheat; format: in vivo, Triticum aestivum; conditions: Preemergence
green foxtail = experiment: Test E green foxtail; format: in vivo, Setaria viridis; conditions: Preemergence
rape = experiment: Test B pre/postemergence rape; format: in vivo, Brassica napus
Summary of the method: as §1

sugar beet = experiment: Test B pre/postemergence sugar beet; format: in vivo, Beta vulgaris
Summary of the method: as §1

blackgrass = experiment: Test E blackgrass; format: in vivo, Alopecurus myosuroides; conditions: Preemergence
winter barley = experiment: Test E winter barley; format: in vivo, Hordeum vulgare; conditions: Preemergence
Italian ryegrass = experiment: Test E Italian ryegrass; format: in vivo, Lolium multiflorum; conditions: Preemergence
wild oat = experiment: Test E wild oat; format: in vivo, Avena fatua; conditions: Preemergence
duck salad = experiment: Test B flood test duck salad; format: in vivo, Heteranthera limosa
Summary of the method: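 Plants were grown to the 2-leaf stage before treatment with test chemical, then held in a greenhouse for twelve to sixteen days. Injury was visually rated against untreated controls on a 0–10 scale, where 0 is no effect and 10 is complete control.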

[3] = Postemergence, Rate 125 g/ha, scale 0 to 10, 0 is no effect, 10 is complete control
[4] = Preemergence, Rate 62 g/ha, scale 0 to 10 (0 no effect, 10 complete control)
[5] = Preemergence, Rate 250 g/ha, scale of 0 to 10 where 0 is no effect and 10 is complete control
[6] = Preemergence, Rate 500 g/ha, scale of 0 to 10 where 0 is no effect and 10 is complete control
[7] = Rate 62 g/ha, Postemergence, scale of 0 to 10 where 0 is no effect and 10 is complete control
[8] = Rate 500 g/ha, Postemergence, scale 0 to 10, 0 no effect, 10 complete control
[9] = Rate 125 g/ha, 0 to 100 scale, 0 is no effect, 100 is complete control
[10] = Rate 250 g/ha, 0 to 100 scale, 0 is no effect, 100 is complete control
[11] = Rate 500 g/ha, 0 to 100 scale, 0 is no effect, 100 is complete control
[12] = Rate 125 g/ha, 0 to 100 scale (0 no effect, 100 complete control)
[13] = Rate 500 g/ha, 0 to 100 scale (0 no effect, 100 complete control)
[14] = Rate 250 g/ha, 0 to 100 scale, 0 no effect, 100 complete control
[15] = Rate 125 g/ha, Pre-emergence, flood test species, scale 0 to 10 where 0 is no effect and 10 is complete control
[16] = Rate 250 g/ha, Pre-emergence, flood-test species, scale 0 to 10, 0 is no effect, 10 is complete control
[17] = Rate 500 g/ha, Pre-emergence, flood test species, scale 0 to 10 (0 no effect, 10 complete control)
[18] = Preemergence, Rate 62 g/ha, scale of 0 to 10 where 0 is no effect and 10 is complete control
[19] = Rate 62 g/ha, Postemergence, scale 0 to 10 (0 no effect, 10 complete control)
[20] = Rate 125 g/ha, Postemergence, scale of 0 to 10 where 0 is no effect and 10 is complete control
[21] = Rate 125 g/ha, Preemergence, scale of 0 to 10 where 0 is no effect and 10 is complete control
[22] = Rate 250 g/ha, Postemergence, scale of 0 to 10 where 0 is no effect and 10 is complete control
[23] = Rate 1000 g/ha, 0 to 100 scale, 0 no effect, 100 complete control

CCC(CC)n1c(=O)on(C(=O)N(c2ccccc2)C(C)C)c1=O [Compound 354]
Plant response rating, Nutsedge (purple nutsedge; [3]): 0
Plant response rating, Nutsedge (purple nutsedge; [4]): 0
Nutsedge plant response rating (0 to 10 scale) (purple nutsedge; Preemergence, Rate 125 g/ha): 0
Nutsedge plant response rating (purple nutsedge; [5]): 0
Nutsedge plant response rating (purple nutsedge; [6]): 0
Nutsedge plant response rating (purple nutsedge; [7]): 0
Plant response rating, Nutsedge (purple nutsedge; [8]): 0
Plant response rating, Wheat (winter) (winter wheat [1]; [9]): 30
Plant response rating, Wheat (winter) (winter wheat [1]; [10]): 40
Plant response rating, Wheat (winter) (winter wheat [1]; [11]): 50
Plant response rating, Wheat (winter) (winter wheat [2]; [12]): 30
Plant response rating, Wheat (winter) (winter wheat [2]; Rate 250 g/ha, 0 to 100 scale): 50
Plant response rating, Wheat (winter) (winter wheat [2]; [13]): 60
Plant response rating, Green foxtail (green foxtail; [12]): 85
Plant response rating, Green foxtail (green foxtail; Rate 250 g/ha, 0 to 100 scale): 80
Plant response rating, Green foxtail (green foxtail; [13]): 100
Plant response rating, Rape (rape; [3]): 0
Plant response rating, Rape (rape; [4]): 0
Rape plant response rating (0 to 10 scale) (rape; Preemergence, Rate 125 g/ha): 1
Rape plant response rating (rape; [5]): 5
Rape plant response rating (rape; [6]): 5
Rape plant response rating (rape; [7]): 0
Plant response rating, Rape (rape; [8]): 4
Plant response rating, Sugarbeets (sugar beet; [3]): 1
Plant response rating, Sugarbeets (sugar beet; [4]): 0
Sugarbeets plant response rating (0 to 10 scale) (sugar beet; Preemergence, Rate 125 g/ha): 0
Sugarbeets plant response rating (sugar beet; [5]): 2
Sugarbeets plant response rating (sugar beet; [6]): 6
Sugarbeets plant response rating (sugar beet; [7]): 0
Plant response rating, Sugarbeets (sugar beet; [8]): 3
Plant response rating, Blackgrass (blackgrass; [12]): 50
Plant response rating, Blackgrass (blackgrass; Rate 250 g/ha, 0 to 100 scale): 55
Plant response rating, Blackgrass (blackgrass; [13]): 30
Plant response rating, Barley (winter) (winter barley; [12]): 20
Plant response rating, Barley (winter) (winter barley; [14]): 30
Plant response rating, Barley (winter) (winter barley; [13]): 40
Plant response rating, I. Ryegrass (Italian ryegrass; [12]): 50
Plant response rating, I. Ryegrass (Italian ryegrass; Rate 250 g/ha, 0 to 100 scale): 60
Plant response rating, I. Ryegrass (Italian ryegrass; [13]): 90
Plant response rating, Wild oat (wild oat; [12]): 0
Plant response rating, Wild oat (wild oat; Rate 250 g/ha, 0 to 100 scale): 30
Plant response rating, Wild oat (wild oat; [13]): 40
Plant response rating, Ducksalad (duck salad; Postemergence (flood test), Rate 125 g/ha, scale 0 to 10, 0 is no effect, 10 is complete control): 3
Ducksalad plant response rating (duck salad; Rate 62 g/ha, Postemergence (flood test species), scale of 0 to 10 where 0 is no effect and 10 is complete control): 0
Plant response rating, Ducksalad (0 to 10 scale, 0 is no effect, 10 is complete control) (duck salad; Rate 62 g/ha, flood test species, Pre-emergence, visual evaluation after twelve to sixteen days): 0
Ducksalad plant response rating (duck salad; [15]): 0
Ducksalad plant response rating (duck salad; [16]): 0
Plant response rating, Ducksalad (duck salad; Rate 500 g/ha, listed under Postemergence (flood test species), scale 0 to 10, 0 no effect, 10 complete control): 5
Ducksalad plant response rating (duck salad; [17]): 0

CC(C)N(C(=O)n1oc(=O)n(CC(C)(C)C)c1=O)c1ccc(F)cc1F [Compound 277]
Nutsedge plant response rating (purple nutsedge; [18]): 0
Nutsedge plant response rating (purple nutsedge; [5]): 0
Plant response rating, Nutsedge (purple nutsedge; [6]): 0
Nutsedge plant response rating (purple nutsedge; [19]): 0
Nutsedge plant response rating (purple nutsedge; [20]): 0
Nutsedge plant response rating (purple nutsedge; [21]): 0
Plant response rating, Nutsedge (purple nutsedge; [22]): 0
Nutsedge plant response rating (purple nutsedge; [8]): 0
Plant response rating, Wheat (winter) (winter wheat [1]; [9]): 0
Plant response rating, Wheat (winter) (winter wheat [1]; Rate 1000 g/ha, 0 to 100 scale where 0 is no effect and 100 is complete control): 10
Wheat (winter) plant response rating (winter wheat [1]; Rate 250 g/ha, 0 to 100 scale where 0 is no effect and 100 is complete control): 0
Plant response rating, Wheat (winter) (winter wheat [1]; [11]): 0
Plant response rating, Wheat (winter) (winter wheat [2]; [12]): 30
Wheat (winter) plant response rating (0 to 100 scale) (winter wheat [2]; Rate 250 g/ha): 20
Plant response rating, Wheat (winter) (winter wheat [2]; [13]): 10
Plant response rating, Wheat (winter) (winter wheat [2]; [23]): 50
Plant response rating, Green foxtail (green foxtail; [12]): 95
Green foxtail plant response rating (0 to 100 scale) (green foxtail; Rate 250 g/ha): 100
Plant response rating, Green foxtail (green foxtail; [13]): 100
Plant response rating, Green foxtail (green foxtail; [23]): 100
Rape plant response rating (rape; [5]): 1
Plant response rating, Rape (rape; [6]): 2
Rape plant response rating (rape; [19]): 0
Rape plant response rating (rape; [20]): 2
Rape plant response rating (rape; [21]): 1
Plant response rating, Rape (rape; [22]): 3
Rape plant response rating (rape; [8]): 3
Sugarbeets plant response rating (sugar beet; [5]): 2
Plant response rating, Sugarbeets (sugar beet; [6]): 7
Sugarbeets plant response rating (sugar beet; [19]): 1
Sugarbeets plant response rating (sugar beet; [20]): 2
Sugarbeets plant response rating (sugar beet; [21]): 1
Plant response rating, Sugarbeets (sugar beet; [22]): 4
Sugarbeets plant response rating (sugar beet; [8]): 5
Plant response rating, Blackgrass (blackgrass; [12]): 60
Blackgrass plant response rating (0 to 100 scale) (blackgrass; Rate 250 g/ha): 100
Plant response rating, Blackgrass (blackgrass; [13]): 70
Plant response rating, Blackgrass (blackgrass; [23]): 100
Plant response rating, Barley (winter) (winter barley; [12]): 30
Barley (winter) plant response rating (0 to 100 scale) (winter barley; Rate 250 g/ha): 50
Plant response rating, Barley (winter) (winter barley; [13]): 65
Plant response rating, Barley (winter) (winter barley; [23]): 50
Plant response rating, I. Ryegrass (Italian ryegrass; [12]): 65
I. Ryegrass plant response rating (0 to 100 scale) (Italian ryegrass; Rate 250 g/ha): 75
Plant response rating, I. Ryegrass (Italian ryegrass; [13]): 95
Plant response rating, I. Ryegrass (Italian ryegrass; [23]): 100
Plant response rating, Wild oat (wild oat; [12]): 50
Wild oat plant response rating (0 to 100 scale) (wild oat; Rate 250 g/ha): 60
Plant response rating, Wild oat (wild oat; [13]): 65
Plant response rating, Wild oat (wild oat; [23]): 70
Ducksalad plant response rating (duck salad; Rate 62 g/ha, headed Pre-emergence (flood test species), scale 0 to 10 (0 no effect, 10 complete control)): 1
Ducksalad plant response rating (duck salad; [15]): 2
Ducksalad plant response rating (duck salad; [16]): 2
Ducksalad plant response rating (duck salad; [17]): 2

COC(Cn1c(=O)on(C(=O)N(c2ccc(F)cc2)C(C)C)c1=O)OC [Compound 317]
Nutsedge plant response rating (purple nutsedge; [18]): 0
Nutsedge plant response rating (purple nutsedge; [5]): 0
Nutsedge plant response rating (purple nutsedge; [6]): 0
Nutsedge plant response rating (purple nutsedge; [19]): 0
Nutsedge plant response rating (purple nutsedge; [20]): 0
Plant response rating, Nutsedge (purple nutsedge; [22]): 0
Plant response rating, Wheat (winter) (winter wheat [1]; [9]): 70
Plant response rating, Wheat (winter) (winter wheat [1]; [10]): 95
Plant response rating, Wheat (winter) (winter wheat [1]; [11]): 95
Plant response rating, Wheat (winter) (winter wheat [2]; [12]): 50
Plant response rating, Wheat (winter) (winter wheat [2]; Rate 250 g/ha, 0 to 100 scale): 50
Plant response rating, Wheat (winter) (winter wheat [2]; [13]): 60
Plant response rating, Green foxtail (green foxtail; [12]): 100
Plant response rating, Green foxtail (green foxtail; Rate 250 g/ha, 0 to 100 scale): 100
Plant response rating, Green foxtail (green foxtail; [13]): 100
Rape plant response rating (rape; [18]): 0
Rape plant response rating (0 to 10 scale) (rape; Preemergence, Rate 125 g/ha): 2
Rape plant response rating (rape; [5]): 8
Rape plant response rating (rape; [6]): 10
Rape plant response rating (rape; [19]): 0
Rape plant response rating (rape; [20]): 0
Plant response rating, Rape (rape; [22]): 1
Sugarbeets plant response rating (sugar beet; [18]): 1
Sugarbeets plant response rating (0 to 10 scale) (sugar beet; Preemergence, Rate 125 g/ha): 4
Sugarbeets plant response rating (sugar beet; [5]): 7
Sugarbeets plant response rating (sugar beet; [6]): 8
Sugarbeets plant response rating (sugar beet; [19]): 0
Sugarbeets plant response rating (sugar beet; [20]): 0
Plant response rating, Sugarbeets (sugar beet; [22]): 1
Plant response rating, Blackgrass (blackgrass; [12]): 50
Plant response rating, Blackgrass (blackgrass; Rate 250 g/ha, 0 to 100 scale): 100
Plant response rating, Blackgrass (blackgrass; [13]): 60
Plant response rating, Barley (winter) (winter barley; [12]): 40
Plant response rating, Barley (winter) (winter barley; [14]): 50
Plant response rating, Barley (winter) (winter barley; [13]): 70
Plant response rating, I. Ryegrass (Italian ryegrass; [12]): 60
Plant response rating, I. Ryegrass (Italian ryegrass; Rate 250 g/ha, 0 to 100 scale): 85
Plant response rating, I. Ryegrass (Italian ryegrass; [13]): 95
Plant response rating, Wild oat (wild oat; [12]): 60
Plant response rating, Wild oat (wild oat; Rate 250 g/ha, 0 to 100 scale): 60
Plant response rating, Wild oat (wild oat; [13]): 70
Ducksalad plant response rating (duck salad; Pre-emergence, Rate 1000 g/ha, scale 0 to 10 (0 no effect, 10 complete control)): 0
Ducksalad plant response rating (duck salad; [15]): 0
Ducksalad plant response rating (duck salad; [16]): 0
Ducksalad plant response rating (duck salad; [17]): 0

— patent US6737383B1, “Herbicidal oxadiazolidines” (priority 1999, dated 2004)
